Assay results reported in KR20170021349A, “다양한 질병의 치료를 위한 jnk 신호 전달 경로의 세포 투과성 펩타이드 억제자의 새로운 용도” (자이겐 인플라메이션 리미티드, priority 2014, dated 2017).
Values belong to the molecule of their own block, whether it stands above or below them. No end group written: not given here.

Legend:
gerbil = conditions: Carboni et al. 2004; cited from earlier work
[1] = tested on: primary embryonic cultures, PC12 cells, mice; conditions: at doses inhibiting JNK activation; cited from earlier work
[2] = tested on: Sprague-Dawley albino rats; assay: Light-induced photoreceptor damage (AMD model), ERG and ONL thickness; format: in vivo, rat; conditions: for a-wave recovery (% of baseline) / b-wave recovery (% of baseline): 50 mg/kg i.p. x5
C57BL/6N mice = conditions: Wang et al. 2004; cited from earlier work
[3] = Phase II trial, post-surgery intraocular inflammation, vs dexamethasone eye drops; format: in vivo, human
Sprague-Dawley rats = assay: STZ diabetic nephropathy model, chronic administration; format: in vivo, rat; conditions: 25 mg/kg po daily
JNK = conditions: Dickens et al. 1997; cited from earlier work
TC-3 cells [4] = assay: Cellular import of fluorescein-labelled TAT and TAT-IB1(s) peptides; format: cell-based; conditions: for time to enter cells: 1 μM labelled peptide
TC-3 cells [5] = assay: IL-1-induced pancreatic beta-cell apoptosis; format: cell-based; conditions: 1 μM single addition
[6] = tested on: AP-1 DNA binding complex in HeLa nuclear extracts; assay: Gel retardation assay, AP-1 DNA binding complex after TNF-alpha; format: cell-based; conditions: added 30 min before TNF-alpha 5 ng/ml

Molecule: N#CC(c1ccnc(NCCc2cccnc2)n1)c1nc2ccccc2s1 (stereo not shown) [AS601245]
- protection against delayed loss of hippocampal CA1 neurons (gerbil): 현저한 보호를 제공한다

Molecule: CCSCc1ccc2c(c1)c1c3c(c4c5cc(CSCC)ccc5n5c4c1n2[C@H]1C[C@](O)(C(=O)OC)[C@]5(C)O1)CNC3=O [CEP-1347]
- neuronal survival [1]: 신경 생존을 촉진한다

Molecule: CC(C)(C)/[N+]([O-])=C/c1ccccc1 [PBN, 페닐-N-tert-부틸니트론, reference compound]
- a-wave recovery (% of baseline) ([2]; day 9): 70.4%
- b-wave recovery (% of baseline) ([2]; day 9): 100%
- a-wave recovery (% of baseline) ([2]; day 16): 79.6%
- b-wave recovery (% of baseline) ([2]; day 16): 103.6%
- a-wave recovery (% of baseline) ([2]; day 23): 76.2%
- b-wave recovery (% of baseline) ([2]; day 23): 102.4%
- ONL thickness loss (% vs non-induced control eyes) ([2]; ip 50 mg/kg): 16%
- ONL thickness ([2]; ip 50 mg/kg, day 23, p<0.05 vs vehicle): 34.05 ± 4.00 μm

Molecule: Oc1c2ccccc2c2c3c(cccc13)N=N2 [SP600125]
- level of c-Jun phosphorylation (C57BL/6N mice): c-Jun 인산화의 수준을 감소

- patients with intraocular pressure increased ([3]; eye drops): 14%
- SOC eye disorders, patients ([3]; eye drops (16 patients)): 32%
Molecule: C[C@@H]1C[C@H]2[C@@H]3CCC4=CC(=O)C=C[C@]4(C)[C@@]3(F)[C@@H](O)C[C@]2(C)[C@@]1(O)C(=O)CO [덱사메타손, reference compound]
- AEs leading to interruption of study treatment, events (%) ([3]; eye drops): 3 (5.5%)
- mild AEs, number of events (%) ([3]; eye drops): 42 (76.4%)
- moderate AEs, number of events (%) ([3]; eye drops): 9 (16.4%)
- patients with an AE within 24 h of administration ([3]; eye drops): 30%
- severe AEs, number of events (%) ([3]; eye drops): 4 (7.3%)
- patients with rescue medication introduced ([3]; eye drops 1 mg/ml 4x/day 21 d): 4.0%
- premature withdrawal of study eye drops, patients (%) ([3]; eye drops (N=50)): 3 (6.0%)
- patients with an adverse event ([3]; eye drops, 29/50): 58%

Molecule: CCCCc1nc(Cl)c(CO)n1Cc1ccc(-c2ccccc2-c2nn[nH]n2)cc1 [로사르탄, 로사르탄 칼륨, reference compound]
- body weight vs vehicle-treated STZ rats (Sprague-Dawley rats): 현저하게 낮았다

Molecule: IPSPSVEEPHKHRPTTLRLTTLGAQDS [IB2-long]
- fold more efficient than c-Jun or ATF2 in binding JNK (JNK): ~100 배

Molecule: NH2-GRKKRRQRRR-COOH (H-GRKKRRQRRR-OH) [L-TAT]
- time to enter cells (TC-3 cells [4]): < 5 분

Molecule: NH2-GRKKRRQRRRPPRPKRPTTLNLFPQVPRSQD-COOH (H-GRKKRRQRRRPPRPKRPTTLNLFPQVPRSQD-OH) [L-TAT-IB1(s)]
- time to enter cells (TC-3 cells [4]): < 5 분
- long-term protection against IL-1-induced cell death (TC-3 cells [5]; 15 days IL-1): 그렇지 않았다
- formation of AP-1 DNA binding complex [6]: 감소시켰다

Molecule: NH2-RRRQRRKKRG-COOH (H-RRRQRRKKRG-OH; also: D-amino acids (positions not given here)) [D-TAT]
- stability inside cells (TC-3 cells [4]): 극도로 안정하다
- time to enter cells (TC-3 cells [4]): < 5 분

Molecule: PGTGCGDTYRPKRPTTLNLFPQVPRSQDT [IB1-long]
- fold more efficient than c-Jun or ATF2 in binding JNK (JNK): ~100 배

Molecule: TDQSRPVQPFLNLTTPRKPRYTDPPRRRQRRKKRG (also: D-amino acids (positions not given here)) [D-TAT-IB1]
- IL-1-induced apoptosis (TC-3 cells [5]; 2 days IL-1, similar extent as L-TAT-IB): 감소시켰다
